Data reported in EP0367033A1, “S-Difluoromethylhomocysteines, preparation process, and insecticidal compositions” (SHIONOGI SEIYAKU KABUSHIKI KAISHA, priority 1988, dated 1990).
Values after ≈ are worked out from the molar mass of the structure shown. Where two headings read alike, the source gives them in different places.

Assays:
[1] = test system: Myzus persicae (URR-O type), sensitive strains; assay: Foliar spray test on larvae of Myzus persicae, sensitive strain; format: in vivo; conditions: for LC50: read-out: LC₅₀ (ppm) Sensitive Strain
Method: (§1) A solution of the compound is diluted with distilled water containing Tween 20® at a concentration of 100 ppm to prepare a predetermined concentration of the test solution. Malathion emulsion and pirimicarb wettable powder are diluted with distilled water to prepare a predetermined concentration of the test solution, respectively.
(§2) Myzus persicae (URR-O type) distributed from Chiba University, which were reared for succesive generations, were used as a group of sensitive strains. Myzus persicae resistant to malathion and pirimicarb which were collected from Aburahi Laboratory of Shionogi & Co., Ltd. and reared for succesive generations while selecting those resistant to these drugs were used as a group of resistant strains.
(§3) A polyethylene cup (diameter 6 cm, depth 4 cm) was filled with 0.3 % agar gel and a piece of Chinese cabbage leaf (3x3 cm) was placed on the gel. One apterous adult of Myzus persicae was put on the leaf and allowed to keep at 25 °C for 24 hours to make larviposition. After removal of the adult, 2 ml of the test solution was applied to the foliage under a rotary sprayer; and larvae of Myzus persicae was allowed to keep at 25 °C for 48 hours. Then the mortality of the larvae was determined and the value of LC₅₀ was calculated by the method of Billis. [Bliis, Ann. Appl. Biol.,22, 134;307 (1935)].

[2] = test system: Myzus persicae resistant to malathion and pirimicarb; assay: Foliar spray test on larvae of Myzus persicae, strain resistant to malathion and pirimicarb; format: in vivo; conditions: for LC50: read-out: LC₅₀ (ppm) Resistant Strain
Method: as §1, §2, §3

[3] = 7.8 ppm, larvae, 25 °C, 48 hours after spraying
[4] = 15.6 ppm, larvae, 25 °C, 48 hours after spraying
[5] = 31.3 ppm, larvae, 25 °C, 48 hours after spraying
[6] = 62.5 ppm, larvae, 25 °C, 48 hours after spraying
[7] = 125 ppm, larvae, 25 °C, 48 hours after spraying
[8] = 250 ppm, larvae, 25 °C, 48 hours after spraying
[9] = larvae, 48 hours, ( ) means 95 % confidence limit

Row | SMILES | mortality at 7.8 ppm [1, 3] | mortality at 15.6 ppm [1, 4] | mortality at 31.3 ppm [1, 5] | mortality at 62.5 ppm [1, 6] | mortality at 125 ppm [1, 7] | mortality at 250 ppm [1, 8] | LC50 [1, 9] | mortality at 7.8 ppm [2, 3] | mortality at 15.6 ppm [2, 4] | mortality at 31.3 ppm [2, 5] | mortality at 62.5 ppm [2, 6] | mortality at 125 ppm [2, 7] | mortality at 250 ppm [2, 8] | LC50 [2, 9] | LC50 ([1]; 48 h) | LC50 ([2]; 48 h)
1 | N[C@@H](CCSC(F)F)C(=O)O [Compound I ^a, L-difluoromethylhomocysteine] | 0% | 8.7% | 4.8% | 57.1% | 100% | 100% | 52.9 µg/mL (≈ 286 µM) | 5% | 0% | 54.2% | 100% | 100% | 100% | 27.1 µg/mL (≈ 146 µM) | – | –
2 | CCOC(=O)CC(SP(=S)(OC)OC)C(=O)OCC (stereo not drawn) [malathion, reference compound] | – | – | – | – | – | – | – | – | – | – | – | – | – | – | 136 µg/mL (≈ 412 µM) | > 2000 µg/mL
3 | Cc1nc(N(C)C)nc(OC(=O)N(C)C)c1C [pirimicarb, reference compound] | – | – | – | – | – | – | – | – | – | – | – | – | – | – | 8.2 µg/mL (≈ 34.4 µM) | > 1920 µg/mL
